Test results taken from patent publication US8569270B2, “Diphenyl sulfide derivatives and medicines containing same as active ingredient” (Kyorin Pharmaceutical Co., Ltd., priority 2009, dated 2013).

Key:
S1P1 receptor [1] = target: T1, S1P1 receptor (Homo sapiens, UniProt P21453); assay: Intracellular calcium mobilization derivative (agonist) test in human S1P1 receptor-expression CHO cells; assay type: cell-based; design: expressed in transfected cells; host or cells: CHO cells (Geneticin-selected); details: agonist mode, read-out: EC50 value, intracellular calcium mobilization derivative action
T1 sequence (P21453 whole entry): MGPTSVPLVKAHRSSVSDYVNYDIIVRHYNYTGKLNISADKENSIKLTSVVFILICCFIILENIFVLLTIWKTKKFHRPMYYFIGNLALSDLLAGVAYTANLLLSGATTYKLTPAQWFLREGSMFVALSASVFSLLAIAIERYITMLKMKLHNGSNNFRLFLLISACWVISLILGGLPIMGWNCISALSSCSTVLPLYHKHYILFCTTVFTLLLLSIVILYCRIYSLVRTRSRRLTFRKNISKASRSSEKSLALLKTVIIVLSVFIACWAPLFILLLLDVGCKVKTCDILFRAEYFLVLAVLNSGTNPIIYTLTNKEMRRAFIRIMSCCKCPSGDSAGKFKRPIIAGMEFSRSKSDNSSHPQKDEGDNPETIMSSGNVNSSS
Method: Intracellular Calcium Mobilization Derivative Test of Test Compound Against Human S1P1 Receptor-Expression Cell
Human S1P receptor-expression CHO cells (hS1P1 receptor-expression CHO cells, hS1P3 receptor-expression CHO cells, and hS1P4 receptor-expression CHO cells) subcultured in a Ham's F-12 culture medium containing 10% fetal bovine serum, and 200 μg/mL of Geneticin were disseminated into a 96-well black clear bottom plate (coaster) so that 4×10^4 cells/well of the human S1P receptor-expression CHO cells were disseminated. The human S1P3 receptor-expression CHO cells were then cultivated for one night at 37° C. under 5% CO2. A Calcium Screening Kit reagent (Dojindo) was added as a Ca^2+ binding fluorescence indicator, and then the cultures were cultivated for 60 minutes at 37° C. under 5% CO2. After cultivation, the fluoroesence intensity was measured at an excitation wavelength of 485 nm and a detection wavelength of 525 nm using a microplate spectrophotofluorometer (FLEX Station) (Molecular Device Co., Ltd.). S1P prepared in a culture medium so that the concentration would be 10 times that of the final concentration, or a test compound (final DMSO concentration 0.1%) was added 18 seconds after the start of the fluorescence measurement, and the fluorescence intensity was continuously measured every 1.5 seconds until 100 seconds after the addition. […]

S1P1 receptor [2] = target: T1, S1P1 receptor; assay: Antagonistic action on the S1P1 receptor using the method of Experiment Example 1; assay type: cell-based; design: expressed in transfected cells
IL-1β production = assay: LPS induced sepsis model, IL-1β in tissue by ELISA; assay type: in vivo, C57BL/6J mouse; details: 10 mg/kg i.v. twice (15 min before and 2 h after LPS), 18 h after LPS
Method: The experiment was carried out with reference to the method described in Non-Patent Literature 5 (F. Nissen et al., Nature, 452, 654 (2008)). A solution of 1 mg/ml LPS (lipopolysaccharide) in physiological saline was intraperitoneally administered (10 ml/kg) to a C57BL/6J mouse (Charles River, male, 7 to 8 weeks). The test compound in an amount of 10 mg/kg was intravenously administered twice, 15 minutes before LPS administration and 2 hours after LPS administration. The mouse was dissected 18 hours after LPS administration, and the mesenteric lymph nodes and lungs were excised. The mesenteric lymph nodes were dissolved in 200 μl and the lungs in 1 ml of a dissolving buffer (30 mM Tris (pH7.4), 150 mM NaCl, 0.1% TritonX-100, 2 mM CaCl2, and 2 mM MgCl2). Non-dissolved matter was removed by centrifugal separation. The IL-1β in the tissue solutions was measured using an IL-1β ELISA Kit (Thermo Co., Ltd.). In Table 2, compounds having a suppression rate of 50% or more are indicated as “+++,” compounds having a suppression rate of 50%>suppression rate≧30% are indicated as “++,” and compounds having a suppression rate of 30%>suppression rate 20% are indicated as “+.”
The suppression rate was calculated using the following calculation equation. a=(1−X/Y)×100 [Equation 1] X: IL-1β PRODUCTION AMOUNT WHEN, 10 mg/kg OF TEST COMPOUND WAS ADMINISTERED TO RESPECTIVE TISSUE Y: IL-1β PRODUCTION AMOUNT WHEN TEST COMPOUND WAS NOT ADMINISTERED TO RESPECTIVE TISSUE a: SUPPRESSION RATE (%)

Human S1P3 receptor = target: T2, Human S1P3 receptor (Homo sapiens, UniProt Q99500); assay: Suppression of S1P-induced cellular calcium mobilization in human S1P3 receptor-expression CHO cells (Schild plot); assay type: cell-based; details: Schild plot of S1P EC50 shift; test compound 125 nM, 1.25 μM, 12.5 μM; hS1P3 CHO cells; read-out: S1P3 dissociation constant Kd value
T2 construct: expressed in transfected cells; host or cells: CHO cells (Geneticin-selected)
T2 sequence (Q99500 whole entry): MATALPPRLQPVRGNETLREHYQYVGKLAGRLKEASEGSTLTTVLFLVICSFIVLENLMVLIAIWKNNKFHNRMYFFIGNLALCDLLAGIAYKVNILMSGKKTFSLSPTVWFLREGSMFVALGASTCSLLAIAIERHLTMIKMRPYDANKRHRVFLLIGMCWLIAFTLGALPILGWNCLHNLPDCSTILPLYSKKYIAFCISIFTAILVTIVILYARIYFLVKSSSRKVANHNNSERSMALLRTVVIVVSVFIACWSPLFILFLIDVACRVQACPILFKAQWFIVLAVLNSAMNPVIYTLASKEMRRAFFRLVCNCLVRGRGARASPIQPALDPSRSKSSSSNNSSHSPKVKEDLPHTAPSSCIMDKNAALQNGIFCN
Method: Suppression Effect of Test Compound Against Cellular Calcium Mobilization of Human S1P3 Receptor-Expression Cell by S1P (Sphingosine 1-Phosphoric Acid)
Human S1P3 receptor-expression CHO cells were subcultured in a Ham's F-12 culture medium containing 10% fetal bovine serum, and 300 μg/mL of Geneticin. The human S1P3 receptor-expression CHO cells were subjected to 0.25% trypsinization, then recovered from the dish, and floated in a Ham's F-12 culture medium containing 10% fetal bovine serum, and 300 μg/mL of Geneticin. After that, the human S1P3 receptor-expression CHO cells were disseminated into a 96-well black clear bottom plate (BD Falcon Biocoat) so that 7×10^4/100 μL/well of the human S1P3 receptor-expression CHO cells were disseminated. And then, the human S1P3 receptor-expression CHO cells were cultivated for one night at 37° C. under 5% CO2. The next day, the wells were washed 3 times with 100 μL of PBS containing 0.1% fatty acid-free bovine serum albumin (BSA). The culture medium was exchanged with a Ham's F-12 culture medium containing 0.1% BSA, and then starved of serum for 6 hours in an CO2 incubator at 37° C.
The culture medium was thrown away after the 6 hours. Then, 50 μL/well of a Fluo3 loading buffer was added, and the cultures were cultivated for further 1 hour. The Fluo3 loading buffer was prepared as follows. First, equal amounts of Fluo3-AM (Dojindo) and pluronic F-127 (20% DMSO solution, invitrogen) were mixed. Next, the mixture of Fluo3-AM and pluronic F-127 was added to a Hanks-HEPES buffer (balanced salt solution containing 20 mM HEPES (pH, 7.4), 0.1% BSA (fatty acid-free), and 2.5 mM probenecid) to form a Fluo3 loading buffer having a final Fluo3-AM concentration of 4
After incubating for 1 hour, the cultures were washed 3 times with 100 μL of the Hanks-HEPES buffer. Then, 100 μL of the same buffer in which a test compound (125 nM, 1.25 μM, 12.5 μM) or DMSO had been dissolved was added to the cultures, and then incubated for 30 minutes at 37° C. in a microplate spectrophotofluorometer (FLEX Station) (Molecular Device Co., Ltd.). Then, 25 μL of S1P prepared at 5 times the concentration of the final concentration by serial dilution (final concentration of 0.1 nM, 1 nM, 10 nM, 100 nM, and 1 μM) was added, and the fluorescence based on the Fluo3 due to calcium mobilization was detected and measured at an excitation wavelength of 485 nm and a detection wavelength of 525 nm using the same apparatus. Based on the measurement data, the increase in fluorescence was calculated by subtracting the minimum fluorescence intensity from the maximum fluorescence intensity. The measured increase in fluorescence was used to perform a curve approximation of the relationship between the S1P concentration and the increase in fluorescence using PRISM 4 software (GraphPad). Based on the results, the EC50 value of the compound-untreated and the EC50 value of the compound-treated at each concentration were calculated. Schild Plot analysis was performed based on these values to determine dissociation constant Kd value. In Table 1, 1,000 nmol/L>Kd value≧100 nmol/L is indicated as “+,” 100 nmol/L>Kd value≧10 nmol/L is indicated as “++,” 10 nmol/L>Kd value≧1 nmol/L is indicated as “+++,” and 1 nmol/L>Kd value is indicated as “++++.”

[3] = system: Cecal ligation and puncture sepsis model; assay: Cecal ligation and puncture sepsis model, survival; assay type: in vivo, Long-Evans rats; details: 0.1 mg/kg/hr continuous i.v. from 2 hours after CLP, rat
Method: This model is widely used as a model for polymicrobial abdominal sepsis caused by leakage of intestinal bacteria. The experiment was carried out with reference to the method described in Non-Patent Literature 9 (D. Rittirsch et al., Nature Protocols, 4, 31 (2009)). Long-Evans rats were used (Nihon SLC, male 9 weeks). The abdominal portion of the rats was cut open under isoflurane anesthesia, and the cecum was removed. The cecum was ligated with silk thread, and 3 holes were opened in the tip portion of the cecum using an 18 G syringe needle. After the treatment, the cecum was returned to the body, and the wound was sutured. The rats were then returned to their cages, and observed for 4 days to determine the survival rate. The test compound (0.1 mg/kg/hr) was continuously administered from a cannula stuck in the femoral vein from 2 hours after the CLP treatment.

Row | EC50 (S1P1 receptor [1]) | Kd (S1P1 receptor [2]) | Kd (Human S1P3 receptor) | SMILES | Suppression Rate for Lung (IL-1β production; mouse lung) | Suppression Rate for Mesenteric Lymph Nodes (IL-1β production; mouse mesenteric lymph nodes) | survival rate after 4 days ([3]; medium group 40%) | survival curve compared with the medium administration group ([3]; observed 4 days)
1 | > 10 µM | > 100 µM | < 0.001 µM | CCC[C@](N)(CCc1ccc(Sc2cc(C(F)(F)F)ccc2O)cc1Cl)COP(=O)(O)O [Example 13] | +++ (suppression rate of 50% or more) | +++ (suppression rate of 50% or more) | – | –
2 | > 10 µM | > 100 µM | 0.1 to 1 µM | C[C@](N)(CCc1ccc(Sc2cc(C#N)ccc2O)cc1Cl)COP(=O)(O)O [Example 15, (S)-2-amino-4-[2-chloro-4-(5-cyano-2-hydroxyphenylthio)phenyl]-2-methylbutylphosphoric acid monoester] | – | – | – | –

Row | SMILES | EC50 (S1P1 receptor [1]) | Kd (S1P1 receptor [2]) | Kd (Human S1P3 receptor) | Suppression Rate for Lung (IL-1β production; mouse lung) | Suppression Rate for Mesenteric Lymph Nodes (IL-1β production; mouse mesenteric lymph nodes) | survival rate after 4 days ([3]; medium group 40%) | survival curve compared with the medium administration group ([3]; observed 4 days)
3 | CCC[C@](N)(CCc1ccc(Sc2cc(-c3ccccc3)ccc2O)cc1Cl)COP(=O)(O)O [Example 22] | – | – | < 0.001 µM | – | – | 70% | survival curve that had shifted to the right
